Results published in patent US4074049A, “Antithrombotic 1,3,4-thiadiazole” (The Dow Chemical Company, priority 1976, dated 1978).
Where two headings read alike, the source gives them in different places. One block for each compound: values may come before it.

Assays:
[1] = tested on: ADP induced platelet aggregation; assay: In vivo platelet aggregation measurement, filter occlusion technique (Broersma et al.); set-up: species or system beagle dogs; details: 20 mg/kg, intravenous, after 4 hours
Method: Measurement of platelet aggregation in vivo was carried out using the technique described by Broersma, et al., Thomb. diath. Haemorrhag. 29, 201 (1973). Such determinations are based upon the measurement of the blood pressure proximal to a filter with 53 micron openings through which arterial blood flows. Platelet aggregation partially obstructs the filter with time causing a change in the pressure which is proportional to the degree of platelet aggregation (thrombosis).
Fasted male beagle dogs were anesthetized with sodium pentobarbital (35 mg/kg), heparinized (16.5 μ/kg, i.v.) and tested for platelet function using aggregometry. Compounds were administered intravenously in solutions having the pH adjusted to 7.4. The solution was infused at a rate of 15.3 ml/min to total volume of 5 ml/kg of body weight. Thrombus formation was observed using the filter occlusion technique outlined above. Platelet count, hematocrit, blood pressure, and heart rate were also measured.

[2] = tested on: ADP-induced platelet aggregation; assay: In vitro inhibition of ADP-induced platelet aggregation (Born technique, optical density, platelet rich plasma); type: cell-based, rat
Method: Rat blood was collected into 3.0 percent trisodium citrate solution (1:10) by cardiac puncture undeer methoxyflurane anesthesia. The blood was centrifuged at 120 g for 10 minutes at room temperature and the supernatant platelet rich plasma was removed and diluted with lactated Ringer's solution containing the […] aggregation inhibiting agent (1.0:1.5). Samples of 1.0 ml were pipetted into plastic test tubes and incubated for three minutes. Plastic equipment was used for all procedures. The concentration of the thiadiazole compound in micromoles inhibiting ADP aggregation by 50 percent (IC50) was determined using changes in optical density as a indicium of platelet aggregation.

tobacco black shank = assay: Control of tobacco black shank, soil drench; type: in vivo
[3] = tested on: ADP-induced emboli / platelet aggregation; assay: Protection of mice from ADP challenge (inclined screen test); type: in vivo; details: 60 mg/kg i.p.; ten mice; ADP i.v. one hour after compound
Method: Emboli formed in the vascular system of mice in response to the administration of ADP cause a stroke-like response that prevents mice from staying on an inclined screen. To illustrate the platelet aggregation inhibition effect of the 1,3,4-thiadiazoles, ten mice were dosed by intraperitoneal injection with 60 mgs per kilogram of body weight of the compound 2,5-bis(2-(diethylamino)ethylthio)-1,3,4-thiadiazole di-p-toluenesulfonic acid salt (Example 3). One hour after compound administration, the mice were challenged with ADP (0.05 M mole/kg) by injection via the tail vein and placed on an inclined screen. Unprotected control mice not injected with thiadiazole were unable to maintain their position on the screen when given a similar injection of ADP.

SMILES: C1CN(CCSc2nnc(SCCN3CCOCC3)s2)CCO1 [2,5-bis-(2-(4-morpholinyl)ethylthio)-1,3,4-thiadiazole]
reduction of ADP induced platelet aggregation in the dog [1]: 36%

SMILES: CC(=O)Oc1ccccc1C(=O)O [Aspirin, reference compound]
IC50 ([2]; Rattus norvegicus, Platelet, read-out: IC50 ADPmax): 12.8 µM | IC50 ([2]; Rattus norvegicus, Platelet, read-out: IC50 ADPslope): 18.1 µM

IC50 ([2]; inhibits maximum ADP-induced platelet aggregation by 50%, rat platelet rich plasma, read-out: IC50 ADPmax): 6.28 µM | IC50 ([2]; inhibits the speed of the platelet aggregation by 50%, rat platelet rich plasma, read-out: IC50 ADPslope): 9.41 µM
SMILES: C(CSc1nnc(SCCCN2CCOCC2)s1)CN1CCOCC1 [Example 1, 2,5-bis(3-(4-morpholinyl)-propylthio)-1,3,4-thiadiazole]
activity relative to aspirin in the inhibition of ADP induced platelet aggregation ([2]; compared with aspirin, conditions of this test): about twice as active as aspirin

SMILES: CCN(CC)CCSc1nnc(N)s1 [Example 2, 2-amino-5-(2-(diethylamino)ethylthio)-1,3,4-thiadiazole]
control and killing of tobacco black shank (in words) (tobacco black shank): effective in the control and killing of tobacco black shank | control of the disease (tobacco black shank) (tobacco black shank; solution of 25 ppm): 100%

SMILES: CCN(CC)CCSc1nnc(SCCN(CC)CC)s1.Cc1ccc(S(=O)(=O)O)cc1.Cc1ccc(S(=O)(=O)O)cc1 [Example 3, 2,5-bis(2-(diethylamino)ethylthio)-1,3,4-thiadiazole di-p-toluenesulfonic acid salt]
mice protected from ADP challenge and able to remain on the screen [3]: 40%
